Laboratory results: patent publication EP4603105A1, “PHARMACEUTICAL COMPOSITION CONTAINING CYCLIC COMPOUND HAVING SELECTIVE KRAS INHIBITORY EFFECT AGAINST HRAS AND NRAS” (CHUGAI SEIYAKU KABUSHIKI KAISHA, priority 2022, dated 2024)
Like-named read-outs stand apart in the source and are kept apart here.

Experiments:
[1] = test system: human lung cancer strain NCI-H441; experiment: NCI-H441 cell proliferation inhibitory activity (CellTiter-Glo, 4 days); assay type: cell-based; settings: read-out: NCl-H441 IC50
Summary of the method: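 Readout: […] after the ATP-based reagent. Compound: serial dilutions in dimethyl sulfoxide.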

HRAS wild-type protein = HRAS wild-type protein (Homo sapiens, UniProt P01112); experiment: Binding to HRAS by surface plasmon resonance (SPR), KD and KD ratio to KRAS
Summary of the method: (§1)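 GDP-bound biotin-Avi RAS captured at ~100–300 RU, 30°C, pH 7.4 HBS containing 10 µM GDP, 10 mM MgCl2, 1 mM DTT, 0.01% Tween 20 and 4% DMSO. KD by 1:1 fitting.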

[2] = biological target: GDP-bound NRAS wild-type protein (Homo sapiens, UniProt P01111); experiment: Binding to NRAS by surface plasmon resonance (SPR), KD and KD ratio to KRAS
Summary of the method: as §1

[3] = biological target: GDP-bound KRAS wild-type protein (Homo sapiens, UniProt P01116); experiment: Binding to KRAS by surface plasmon resonance (SPR), dissociation constant KD
Summary of the method: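 Recombinant RAS proteins bearing a biotinylated Avi tag and loaded with GDP served as the captured ligand, recaptured fresh every cycle. Binding responses were referenced to an uncoated surface and a buffer-only blank cycle. Dissociation constants were obtained by 1:1 model fitting at 30°C.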

[4] = ratio of KD for HRAS wild-type protein to KD for KRAS
[5] = ratio of KD for GDP-bound NRAS wild-type protein to KD for KRAS
[6] = 50% proliferation inhibitory concentration, four days
[7] = ratio of KD with respect to HRAS wild-type protein to KD with respect to KRAS
[8] = ratio of KD with respect to GDP-bound NRAS wild-type protein to KD with respect to KRAS
[9] = Single Cycle Kinetics, 1:1 binding model

Chain of HRAS wild-type protein (P01112 whole entry): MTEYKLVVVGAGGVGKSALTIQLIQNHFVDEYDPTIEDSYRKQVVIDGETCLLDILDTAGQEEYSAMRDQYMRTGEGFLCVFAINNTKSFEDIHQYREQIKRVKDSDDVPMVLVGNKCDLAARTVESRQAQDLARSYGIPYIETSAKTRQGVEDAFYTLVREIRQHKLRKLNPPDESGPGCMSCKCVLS
Chain of GDP-bound NRAS wild-type protein (P01111 whole entry): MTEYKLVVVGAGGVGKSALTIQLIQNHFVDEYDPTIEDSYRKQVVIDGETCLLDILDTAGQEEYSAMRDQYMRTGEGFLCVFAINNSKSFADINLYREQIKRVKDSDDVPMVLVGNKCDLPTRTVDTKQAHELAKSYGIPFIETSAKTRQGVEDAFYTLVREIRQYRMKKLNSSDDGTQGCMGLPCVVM
Chain of GDP-bound KRAS wild-type protein (P01116 1-188 isoform P01116-2): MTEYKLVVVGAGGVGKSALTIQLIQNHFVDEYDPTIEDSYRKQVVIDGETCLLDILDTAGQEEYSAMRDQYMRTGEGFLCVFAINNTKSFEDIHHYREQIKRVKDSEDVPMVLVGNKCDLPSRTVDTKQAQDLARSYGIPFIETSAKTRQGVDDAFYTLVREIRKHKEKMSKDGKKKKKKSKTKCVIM

SMILES | IC50 ([1]; NCI-H441 cells, 4 days) | HRAS /KRAS (HRAS wild-type protein; [4]) | NRAS /KRAS [2, 5] | Kd ([3]; 1:1 binding model) | Kd ([3]; Single Cycle Kinetics) | IC50 [1, 6] | HRAS /KRAS (HRAS wild-type protein; [7]) | NRAS /KRAS [2, 8] | Kd [3, 9]
CCOC[C@H]1C(=O)N[C@@H]([C@@H](C)CC)C(=O)N(C)CC(=O)N(C)[C@H]2C/C=C\CCN(C2=O)[C@@H](Cc2ccc(C)cc2)C(=O)N(C)CC(=O)N[C@@H](CCc2ccc(C(F)(F)F)c(Cl)c2)C(=O)N2C[C@H](OCC)C[C@H]2C(=O)NC2(CC(C)(C)C2)C(=O)N(C)[C@@H](C2CCCC2)C(=O)N(C)[C@H](C(=O)N(C)CC)CC(=O)N1C [PP2401] | 5.3 nM | A (a compound having 10 or more and less than 20 is denoted as A) | A (a compound having 10 or more and less than 20 is denoted as A) | 0.12 nM |  |  |  |  | 
CCO[C@H](C)[C@@H]1NC(=O)[C@H](CC(C)C)N(C)C(=O)C[C@@H](C(=O)N(C)CC)N(C)C(=O)[C@H](C2CCCC2)N(C)C(=O)C2(CC(C)(C)C2)NC(=O)[C@@H]2C[C@H](C)CN2C(=O)[C@H](CCc2ccc(C(F)(F)F)c(OC)c2)NC(=O)CN(C)C(=O)[C@H](Cc2ccc(C)cc2)N2CC/C=C\C[C@@H](C2=O)N(C)C(=O)CN(C)C1=O [PP2413] | 115 nM | A (a compound having 10 or more and less than 20 is denoted as A) | A (a compound having 10 or more and less than 20 is denoted as A) | 0.25 nM |  |  |  |  | 
C#CC[C@H]1C(=O)N[C@@H]([C@@H](C)CC)C(=O)N2CCC[C@H]2C(=O)N(C)[C@H]2C/C=C\CCN(C2=O)[C@@H](Cc2ccc(C(F)(F)F)cc2)C(=O)N(C)CC(=O)N[C@@H](CCc2ccc(C(F)(F)F)c(OC)c2)C(=O)N2C[C@H](OCC)C[C@H]2C(=O)N(C)C2(CCC2)C(=O)N(C)[C@@H](C2CCCC2)C(=O)N(C)[C@H](C(=O)N(C)C)CC(=O)N1C [PP3252] | 4.5 nM | A (a compound having 10 or more and less than 20 is denoted as A) | A (a compound having 10 or more and less than 20 is denoted as A) |  | 0.082 nM |  |  |  | 
CCCO[C@@H]1C[C@H]2C(=O)NC3(CC(C)(C)C3)C(=O)N(C)[C@@H](C3CCCC3)C(=O)N(C)[C@H](C(=O)N(C)CC)CC(=O)N(C)[C@@H](COCC)C(=O)N[C@@H]([C@@H](C)CC)C(=O)N3C[C@@H](F)C[C@H]3C(=O)N(C)[C@H]3C/C=C\CCN(C3=O)[C@@H](Cc3ccc(C)cc3)C(=O)N(C)CC(=O)N[C@@H](CCc3ccc(C(F)(F)F)c(Cl)c3)C(=O)N2C1 [PP3465] | 23.3 nM | A (a compound having 10 or more and less than 20 is denoted as A) | A (a compound having 10 or more and less than 20 is denoted as A) |  | 0.6 nM |  |  |  | 
CCO[C@@H]1C[C@H]2C(=O)NC3(CCC3)C(=O)N(C)[C@@H](C3CCCC3)C(=O)N(C)[C@H](C(=O)N3CCOCC3)CC(=O)N(C)[C@@H](CC)C(=O)N[C@@H]([C@@H](C)CC)C(=O)N(C)CC(=O)N(C)[C@H]3C[C@@H](C)[C@@H](C)CN(C3=O)[C@@H](Cc3ccc(C(F)(F)F)cc3)C(=O)N(C)CC(=O)N[C@@H](CCc3ccc(C(F)(F)F)c(Cl)c3)C(=O)N2C1 [PP1360] |  |  |  |  |  | 4.9 nM | B (a compound having 3 or more and less than 10 is denoted as B) | A (a compound having 10 or more and less than 20 is denoted as A) | 0.055 nM
C#CC[C@H]1C(=O)N[C@@H]([C@@H](C)CC)C(=O)N2CCC[C@H]2C(=O)N(C)[C@H]2C/C=C\CCN(C2=O)[C@@H](Cc2ccc(C)cc2)C(=O)N(C)CC(=O)N[C@@H](CCc2ccc(C(F)(F)F)c(OC)c2)C(=O)N2C[C@H](OCC)C[C@H]2C(=O)OC2(CCC2)C(=O)N(C)[C@@H](C2CCCC2)C(=O)N(C)[C@H](C(=O)N(C)C)CC(=O)N1C [PP3389] | 7.2 nM | B (a compound having 3 or more and less than 10 is denoted as B) | A (a compound having 10 or more and less than 20 is denoted as A) |  | 0.38 nM |  |  |  | 
CCCOC[C@H]1C(=O)N[C@@H](C2CCCC2)C(=O)N(CCC)CC(=O)N(C)[C@H]2C/C=C\CCN(C2=O)[C@@H](Cc2ccc(C)cc2)C(=O)N(C)CC(=O)N[C@@H](CCc2ccc(Cl)c(C(F)(F)F)c2)C(=O)N2C[C@H](OC(C)C)C[C@H]2C(=O)N(C)C2(CCC2)C(=O)N(C)[C@@H](C(CC)CC)C(=O)N(C)[C@H](C(=O)N(C)C)CC(=O)N1C [PP3501] | 102 nM | A (a compound having 10 or more and less than 20 is denoted as A) | AA (a compound having 20 or more is denoted as AA) |  | 1.1 nM |  |  |  | 
CCCO[C@@H]1C[C@H]2C(=O)NC3(CC(C)(C)C3)C(=O)N(C)[C@@H](C3CCCC3)C(=O)N(C)[C@H](C(=O)N(C)CC)CC(=O)N[C@@H](COCC)C(=O)N[C@@H]([C@@H](C)CC)C(=O)N(C3CC3)CC(=O)N(C)[C@H]3C/C=C\CCN(C3=O)[C@@H](Cc3ccc(C)cc3)C(=O)N(C)CC(=O)N[C@@H](CCc3cc(F)c(C(F)(F)F)c(F)c3)C(=O)N2C1 [PP3421] | 67 nM | A (a compound having 10 or more and less than 20 is denoted as A) | A (a compound having 10 or more and less than 20 is denoted as A) |  | 1.9 nM |  |  |  | 
C#CC[C@H]1C(=O)N[C@@H]([C@@H](C)CC)C(=O)N(C2CC2)CC(=O)N(C)[C@H]2C/C=C\CCN(C2=O)[C@@H](Cc2ccc(C)cc2)C(=O)N(C)CC(=O)N[C@@H](CCc2ccc(C(F)(F)F)c(OC)c2)C(=O)N2C[C@H](OCC)C[C@H]2C(=O)OC2(CCC2)C(=O)N(C)[C@@H](C2CCCC2)C(=O)N(C)[C@H](C(=O)N(C)C)CC(=O)N1C [PP3390] | 22.8 nM | B (a compound having 3 or more and less than 10 is denoted as B) | A (a compound having 10 or more and less than 20 is denoted as A) |  | 0.69 nM |  |  |  | 
CCC[C@H]1C(=O)N[C@@H]([C@@H](C)CC)C(=O)N(C)CC(=O)N(C)[C@H]2C/C=C\CCN(C2=O)[C@@H](Cc2ccc(C)cc2)C(=O)N(C)CC(=O)N[C@@H](CCc2ccc(C(F)(F)F)c(OC)c2)C(=O)N2CC3(CC3)C[C@H]2C(=O)N(C)C2(CCC2)C(=O)N(C)[C@@H](C(CC)CC)C(=O)N(C)[C@H](C(=O)N(C)C)CC(=O)N1C [PP3292] | 5.4 nM | A (a compound having 10 or more and less than 20 is denoted as A) | A (a compound having 10 or more and less than 20 is denoted as A) |  | 0.13 nM |  |  |  | 
CCO[C@@H]1C[C@H]2C(=O)NC3(CC(C)(C)C3)C(=O)N(C)[C@@H](C3CCCC3)C(=O)N(C)[C@H](C(=O)N(C)C)CC(=O)N(C)[C@@H]([C@H](C)OC)C(=O)N[C@@H]([C@@H](C)CC)C(=O)N(C3CC3)CC(=O)N(C)[C@H]3C/C=C\CCN(C3=O)[C@@H](Cc3ccc(C(F)(F)F)cc3)C(=O)N(C)CC(=O)N[C@@H](CCc3cc(F)c(C(F)(F)F)c(F)c3)C(=O)N2C1 [PP3175] | 15.3 nM | A (a compound having 10 or more and less than 20 is denoted as A) | A (a compound having 10 or more and less than 20 is denoted as A) |  | 0.31 nM |  |  |  | 
CCO[C@@H]1C[C@H]2C(=O)NC3(CCC3)C(=O)N(C)[C@@H](C(CC)CC)C(=O)N(C)[C@H](C(=O)N(C)C)CC(=O)N(C)[C@@H](CC)C(=O)N[C@@H]([C@@H](C)CC)C(=O)N(C)CC(=O)N(C)[C@H]3C/C=C\CCN(C3=O)[C@@H](Cc3ccc(C(F)(F)F)cc3)C(=O)N(C)CC(=O)N[C@@H](CCc3ccc(C(F)(F)F)c(OC)c3)C(=O)N2C1 [PP1207] |  |  |  |  |  | 29.9 nM | A (a compound having 10 or more and less than 20 is denoted as A) | AA (a compound having 20 or more is denoted as AA) | 0.21 nM
CCO[C@@H]1C[C@H]2C(=O)NC3(CCC3)C(=O)N(C)[C@@H](C3CCCC3)C(=O)N(C)[C@@H](C(=O)N(C)C)CC(=O)N(C)[C@@H](CC)C(=O)N[C@@H]([C@@H](C)CC)C(=O)N(C)CC(=O)N(C)[C@H]3C/C=C\CCN(C3=O)[C@@H](Cc3ccc(C(F)(F)F)cc3)C(=O)N(C)CC(=O)N[C@@H](CCc3cc(F)c(C(F)(F)F)c(F)c3)C(=O)N2C1 [PP1234] |  |  |  |  |  | 398 nM | C (A compound having a KD ratio of 0.1 or more and less than 3 is denoted as C) | B (a compound having 3 or more and less than 10 is denoted as B) | 3.8 nM
C#CC[C@H]1C(=O)N[C@@H]([C@@H](C)CC)C(=O)N(C)CC(=O)N(C)[C@H]2C/C=C\CCN(C2=O)[C@@H](Cc2ccc(C)cc2)C(=O)N(C)CC(=O)N[C@@H](CCc2ccc(C(F)(F)F)c(OC)c2)C(=O)N2C[C@H](OCC)C[C@H]2C(=O)N(C)C2(CCC2)C(=O)N(C)[C@@H](C2CCCC2)C(=O)N(C)[C@H](C(=O)N(C)C)CC(=O)N1C [PP3236] | 3.9 nM | B (a compound having 3 or more and less than 10 is denoted as B) | A (a compound having 10 or more and less than 20 is denoted as A) |  | 0.028 nM |  |  |  | 
